Source: patent US6875737B1, “Multivalent compounds for crosslinking receptors and uses thereof” (Trustees of Tufts College, priority 1996, dated 2005)
Where two headings read alike, the source gives them in different places. Marks after values point to notes of the source that are not given here. Ends that are not written are not given here.

Columns and labels:
[1] = test system: T cell clone 4E3.B11.D9.H10.H6; experiment: T cell clone proliferation, thymidine uptake; assay type: cell-based
Description: (§1) The proliferative effect of PLP-S-KbP on several different T cell clones that recognize PLP 139-151 were tested. T cell clones that recognize an irrelevant epitope, were used as negating controls. The protocol used is described (Kuchroo, V. K., et al., B7-1 and B7-2 Costimulatory Molecules Activate Differentially the Th1/Th2 Developmental Pathways: Application to Autoimmune Disease Therapy, Cell 80, 707-718 (1995)) and is incorporated herein by reference. Proliferation was measured by thymidine uptake. Table 1 below compares the effect PLP-S-KbP, antigenic PLP 139-151 peptide and non-antigenic PLP 103-116 peptide has on proliferation in different five PLP 139-151 specific T cell clones.

[2] = test system: T cell clone 5B8.G8.E6.H12; experiment: T cell clone proliferation, thymidine uptake; assay type: cell-based
Description: as §1

[3] = test system: T cell clone SPL.C1.H2.F2; experiment: T cell clone proliferation, thymidine uptake; assay type: cell-based
Description: as §1

T cell clone 7A5.F10.G11 = experiment: T cell clone proliferation, thymidine uptake; assay type: cell-based
Description: as §1

[4] = test system: T cell clone 2E5.G10.G5.E5; experiment: T cell clone proliferation, thymidine uptake; assay type: cell-based
Description: as §1

[5] = mice; cited from earlier work
[6] = Conformational equilibrium of cyclic and open chain forms; assay type: physicochemical; details: at equilibrium at pH 7.0
From the text: G. Gutheil and W. W. Bachovchin, separation of L-Pro-DL-boroPro into Its Component Diastereomers and Kinetic Analysis of Their Inhibition of Dipeptidyl Peptidase IV. A New Method for the Analysis of Slow, Tight-Binding Inhibition, Biochemistry 32, 8723-8731 (1993)).

[7] = test system: Dipeptidyl Peptidase IV (DP IV, CD26); experiment: Inhibition of DP IV (CD26) proteinase activity, Ki; assay type: biochemical; details: soluble DP IV (CD26)
From the text: Assays to measure CD26 (DP IV) activity will be performed on both the homobivalent compounds, e.g., Lys-boroPro coupled to another, and the heterobivalent compounds, e.g., Lys-boroPro coupled to a peptide specific for a T cell surface receptor, e.g., moth cytochrome C peptide. Methods for quantitatively measuring the interaction of small peptidomimetic inhibitors with CD26 or DP IV, as well as for the interaction of CD26 with larger ligands, e.g., the HIV Tat protein, have been developed (W. G. Gutheil and W. W. Bachovchin. Separation of L-Pro-DL-boroPro into Its Component Diastereomers and Kinetic analysis of Their Inhibition of Dipeptidyl Peptidase IV. A New Method for the Analysis of Slow, Tight-Binding Inhibition, Biochemistry 32, 8723-8731 (1993); Gutheil, W. G., and W., B. W. Kinlsq, A Matlab Program for Fitting Kinetics Data with Numerically Integrated Rate Equations and Its Application to the Analysis of Slow, Tight Binding Data, Analytical Biochemistry 223, 13-20 (1994); Gutheil, W. G., Subramanyam, M., Flentke, G. R., Sanford, D. G., Munoz, E., Huber, B. T., and Bachovchin, W. W. HIV-1 Tat Binds to DP IV (CD26): A possible Mechanism for Tat's Immunosuppressive Activity, Proc. Natl. Acad. Sci. U.S.A. 91, 6594-6598 (1994)). These methods use the chromatogenic substrate Ala-Pro-p-nitroanilide (APpNA) and fluorescent substrate Ala-Pro-7-amino-4-trifluoromethyl coumarin (AP-AFC). APpNA and AP-AFC are commercially available (e.g., Enzyme Systems Products, Dublin, Calif.).

[8] = test system: Dipeptidyl Peptidase IV (DP IV, CD26); details: cited from earlier work
H9 cells [9] = experiment: IL-2 production by H9 cells stimulated with anti-CD3 mAb OKT3 (HT2 bioassay); assay type: cell-based
Description: To determine the effect KbP2-Adipate had on anti-CD3 mAb stimulation of H9 cells, e.g., stimulation of suppressing IL-2 production, the following protocol was used.
In quadruplicate wells, H9 cells were preincubated with KbP2-Adipate for 0, 30, 60, or 150 min. After the preincubation, the cells were seeded into a 96 well flatbottom plate pre-coated with anti-CD3 monoclonal antibody OKT3 at 1,000, 5,000, 10,000, 20,000, 50,000, or 100,000 times dilution of stock. After 24 hr, the cells were lysed by freezing at […]. IL-2 concentration in the H9 cells lysates was bioassayed using the IL-2 dependent cell line HT2, Watson, J. D. “Continuous proliferation of murine antigen specific helper T lymphocytes in culture,” 1979, Journal of Experimental Medicine, 150:1510. HT2 proliferation was measured by counting 3H-thymidine incorporation.
Similar experiments were carried out with (KbP)2-EGS and the co-stimulatory antibody OKT3; the results of these experiments are shown in FIG. 12.

H9 cells [10] = experiment: H9 cell viability, trypan blue hemocytometry counts and flow cytometry; assay type: cell-based
From the text: Possible explanations for the observed inhibitory activity shown in FIG. 3 were eliminated with proper negative controls.

HSLGKWLGHPDKF [PLP 139-151, peptide corresponding to residues 139-151 of myelin proteolipid protein]
proliferation, thymidine uptake ([1]; dose 0.1 μM): 318 ^3H counts
proliferation, thymidine uptake ([1]; dose 1 μM): 125 ^3H counts
proliferation, thymidine uptake ([1]; dose 10 μM): 534 ^3H counts
proliferation, thymidine uptake ([1]; dose 100 μM): 1,932 ^3H counts
proliferation, thymidine uptake ([2]; dose 0.1 μM): 106 ^3H counts
proliferation, thymidine uptake ([2]; dose 1 μM): 349 ^3H counts
proliferation, thymidine uptake ([2]; dose 10 μM): 9,176 ^3H counts
proliferation, thymidine uptake ([2]; dose 100 μM): 41,073 ^3H counts
proliferation, thymidine uptake ([3]; dose 0.1 μM): 423 ^3H counts
proliferation, thymidine uptake ([3]; dose 1 μM): 107 ^3H counts
proliferation, thymidine uptake ([3]; dose 10 μM): 400 ^3H counts
proliferation, thymidine uptake ([3]; dose 100 μM): 809 ^3H counts
proliferation, thymidine uptake (T cell clone 7A5.F10.G11; dose 0.1 μM): 117 ^3H counts
proliferation, thymidine uptake (T cell clone 7A5.F10.G11; dose 1 μM): 222 ^3H counts
proliferation, thymidine uptake (T cell clone 7A5.F10.G11; dose 10 μM): 406 ^3H counts
proliferation, thymidine uptake (T cell clone 7A5.F10.G11; dose 100 μM): 2,324 ^3H counts
proliferation, thymidine uptake ([4]; dose 0.1 μM): 101 ^3H counts
proliferation, thymidine uptake ([4]; dose 1 μM): 288 ^3H counts
proliferation, thymidine uptake ([4]; dose 10 μM): 70 ^3H counts
proliferation, thymidine uptake ([4]; dose 100 μM): 1,506 ^3H counts

PLP103-116: non-antigenic PLP 103-116 peptide (DYKTTICGKGLSAT)
proliferation, thymidine uptake ([1]; dose 0.1 μM): 178 ^3H counts
proliferation, thymidine uptake ([1]; dose 1 μM): 559 ^3H counts
proliferation, thymidine uptake ([1]; dose 10 μM): 224 ^3H counts
proliferation, thymidine uptake ([1]; dose 100 μM): 274 ^3H counts
proliferation, thymidine uptake ([2]; dose 0.1 μM): 124 ^3H counts
proliferation, thymidine uptake ([2]; dose 1 μM): 226 ^3H counts
proliferation, thymidine uptake ([2]; dose 10 μM): 74 ^3H counts
proliferation, thymidine uptake ([2]; dose 100 μM): 143 ^3H counts
proliferation, thymidine uptake ([3]; dose 0.1 μM): 238 ^3H counts
proliferation, thymidine uptake ([3]; dose 1 μM): 123 ^3H counts
proliferation, thymidine uptake ([3]; dose 10 μM): 479 ^3H counts
proliferation, thymidine uptake ([3]; dose 100 μM): 150 ^3H counts
proliferation, thymidine uptake (T cell clone 7A5.F10.G11; dose 0.1 μM): 556 ^3H counts
proliferation, thymidine uptake (T cell clone 7A5.F10.G11; dose 1 μM): 314 ^3H counts
proliferation, thymidine uptake (T cell clone 7A5.F10.G11; dose 10 μM): 117 ^3H counts
proliferation, thymidine uptake (T cell clone 7A5.F10.G11; dose 100 μM): 124 ^3H counts
proliferation, thymidine uptake ([4]; dose 0.1 μM): 307 ^3H counts
proliferation, thymidine uptake ([4]; dose 1 μM): 434 ^3H counts
proliferation, thymidine uptake ([4]; dose 10 μM): 60 ^3H counts
proliferation, thymidine uptake ([4]; dose 100 μM): 107 ^3H counts

O=C(C1CCCN1)N1CCCC1B(O)O (stereo not shown) [Pro-boroPro]
immune response in vivo (antibody production after antigen challenge) [5]: inhibited an immune response in vivo in mice
fraction existing as open chain, inhibitory species [6]: less than 1%

NCCCC[C@H](N)C(=O)N1CCC[C@H]1B(O)O (single isomer, unassigned) [L,L isomer, Lys-boroPro]
DP IV inhibition [7]: inhibitory

HSLGKWLGHPDKFAAAAAA-εKbP (not fully specified (C-terminus); printed as HSLGKWLGHPDKFAAAAAA-εKbP; also: C-terminus joined to epsilon-amino of Lys, which carries boroPro) [PLP-S-KbP, Lys-boroPro linked by its ε-amino group via six alanines to the C terminus of PLP 139-151]
proliferation, thymidine uptake ([1]; dose 0.1 μM): 3,688 ^3H counts
proliferation, thymidine uptake ([1]; dose 1 μM): 8,580 ^3H counts
proliferation, thymidine uptake ([1]; dose 10 μM): 15,753 ^3H counts
proliferation, thymidine uptake ([1]; dose 100 μM): 17,608 ^3H counts
proliferation, thymidine uptake ([2]; dose 1 μM): 22,022 ^3H counts
proliferation, thymidine uptake ([2]; dose 10 μM): 53,628 ^3H counts
proliferation, thymidine uptake ([2]; dose 100 μM): 34,716* ^3H counts
proliferation, thymidine uptake ([3]; dose 0.1 μM): 681 ^3H counts
proliferation, thymidine uptake ([3]; dose 1 μM): 2,527 ^3H counts
proliferation, thymidine uptake ([3]; dose 10 μM): 17,516 ^3H counts
proliferation, thymidine uptake ([3]; dose 100 μM): 31,635 ^3H counts
proliferation, thymidine uptake (T cell clone 7A5.F10.G11; dose 0.1 μM): 187 ^3H counts
proliferation, thymidine uptake (T cell clone 7A5.F10.G11; dose 1 μM): 8,202 ^3H counts
proliferation, thymidine uptake (T cell clone 7A5.F10.G11; dose 10 μM): 35,521 ^3H counts
proliferation, thymidine uptake (T cell clone 7A5.F10.G11; dose 100 μM): 43,999 ^3H counts
proliferation, thymidine uptake ([4]; dose 0.1 μM): 175 ^3H counts
proliferation, thymidine uptake ([4]; dose 1 μM): 7,738 ^3H counts
proliferation, thymidine uptake ([4]; dose 10 μM): 26,410 ^3H counts
proliferation, thymidine uptake ([4]; dose 100 μM): 36,686 ^3H counts

CC(N)C(=O)N1CCCC1B(O)O [L-Ala-D,L-boroPro]
DP IV inhibition [7]: potent inhibitors

OB(O)C1CCCN1 (stereo not shown) [boroPro]
DP IV inhibition [8]: not an effective inhibitor

N[C@@H](CCCCNC(=O)CCCCC(=O)NCCCC[C@H](N)C(=O)N1CCC[C@H]1B(O)O)C(=O)N1CCC[C@H]1B(O)O [KbP2-Adipate, di(L-Lysine-L-boroProline)adipate]
shape of dose response on IL-2 production (H9 cells [9]): decreases with increasing KbP2-Adipate concentrations
suppression of IL-2 production (H9 cells [9]; 4.0×10^−10 M, anti-CD3 mAb stimulation of H9 cells (FIG. 4)): 98%
concentration range where stimulatory effect begins (H9 cells [9]; FIG. 5): ~1 pM
concentration range where stimulatory effect saturates (H9 cells [9]; FIG. 5): ~10 mM
augmentation of IL-2 production (co-stimulatory activity) (H9 cells [9]; higher concentrations (FIG. 5), depends on concentration and preincubation time): up to 4 fold
effect on IL-2 production (H9 cells [9]; higher concentrations, e.g. 10^−6 M (FIG. 5)): potent stimulator
effect on IL-2 production (H9 cells [9]; lower concentrations, e.g. 10^−10 M (FIG. 4)): potent inhibitor
cell viability (H9 cells [10]): did not affect cell viability

CC(C)C(N)C(=O)N1CCCC1B(O)O (stereo not shown) [Val-boroPro]
fraction existing as open chain, inhibitory species [6]: less than 0.1%

C[C@H](N)C(=O)N1CCC[C@H]1B(O)O [Ala-boroPro]
immune response in vivo (antibody production after antigen challenge) [5]: inhibited an immune response in vivo in mice

O=C(C1CCCN1)N1CCCC1B(O)O [L-Pro-D,L-boroPro]
DP IV inhibition [7]: potent inhibitors

NCCCC[C@H](N)C(=O)N1CCC[C@H]1B(O)O (single isomer, unassigned) [L,D isomer, Lys-boroPro]
DP IV inhibition [7]: non inhibitory
